Two substances from US6613536B1, “Synthetic peptides and pharmaceutical compositions comprising them for the treatment of systemic lupus erythematosus” (Yeda Research and Development Co. Ltd., priority 1995, dated 2003) can be followed below.

Assay [1] has as its system SJL/J and BALB/c mice. Description: Anti-DNA antibodies in sera of immunized mice (ELISA). The class given is in vivo, mouse. Conditions: for anti-DNA antibodies in sera: sera three months after booster; for levels of autoantibodies including anti-DNA and anti-NE antibodies: SJL mice immunized with IIIa, BALB/c mice immunized with Ia. The protocol:
ELISA was utilized for the detection and quantitation of antibodies in experimental mice, and in humans. Polystyrene microtiter plates were coated with the relevant antigen or antibody, and sera dilutions or supernatants derived from the human or mouse cell cultures were added to the blocked plates. Specific binding was determined following the addition of peroxidase-conjugated antibodies against the appropriate immunoglobulin (Ig) (e.g. goat anti-human or goat anti-mouse peroxidase-conjugated antibodies) and the peroxidase substrate. Optical densities were read at 414 nm using an ELISA reader.
SJL/J and BALB/c female mice (6-8 week old) were immunized with 20 μg of peptide Ia or IIIa of the invention, or with a control peptide designated p278 (the peptide desinated Pep 278h described in published PCT International Application WO 94/03208) or with mAb 5G12 emulsified in complete Freund's adjuvant (CFA) in the foot pads. Three weeks later the mice received a booster injection with the same amount of peptide or mAb, in PBS. Thereafter, blood was drawn every two weeks. A fifth group included non-immunized mice.
ELISA was utilized to test the presence of the anti-DNA antibodies in the sera of the mice, as follows : Plates (Nunc) were coated for 90 min with 10 μg/ml of methylated BSA. Thereafter the plates were washed (all the washes were 3 times with PBS/0.05% Tween 20 (Sigma)) and incubated for an additional 90 min with 10 μg/ml of single-stranded DNA (calf thymus DNA (Sigma) that was heated for 15 min at 90° C. and fast-cooled). The plates were washed and blocked overnight with 1% ovalbumin in PBS (Sigma). Thereafter, the plates were washed and incubated with the sera of the mice diluted in the blocking reagent, followed by wash and incubation with 1:500 dilution of goat anti-mouse IgG (Fc receptor specific) polyclonal antibody conjugated to peroxidase. The plates were then washed and developed using ABTS substrate (Sigma), and the color was read using an ELISA reader at 414 nm. Results are expressed as mean OD of each mouse group (5 mice per group).
A general note: In an ELISA, binding on a coated surface is turned into a signal by an enzyme label.

In assay [2] the test system is SJL/J and BALB/c mice. Nature of the assay: Anti-RNP, Sm, Ro and La antibodies in sera of immunized mice (ELISA). Conditions: for anti-RNP antibodies in sera / anti-Sm, anti-La and anti-Ro antibodies in sera: BALB/c mice; for anti-RNP, anti-Sm and anti-La antibodies in sera: sera diluted 1:10, compared to normal mice or p278. It counts as in vivo, mouse. The protocol:
The same sera of the mice as described in Examples 2 and 3 were used for detection of anti-RNP, Sm, Ro and La antibodies.
Plates were purchased as pre-coated plates and were blocked with 1% ovalbumin in PBS for 2 hr. Thereafter the plates were washed as in Example 2 above, incubated in duplicates with 1:10 diluted sera, washed again and ELISA was carried out as described in Example 2 above.

Assay [3] has as its system lymph node cells (LNC) of BALB/c and SJL mice. Description: In vivo inhibition of LNC proliferation responses to the CDR-based peptides. Details: species or system mouse. Conditions: LNC of treated mice; not shown. The method, then: BALB/c (FIG. 5a) and SJL (FIG. 5b) mice were immunized with peptides Ia and IIIa (20 μg/mouse in CFA i.d. in the hind footpads), respectively. The mice were also injected i.v. with 200 μg of the above peptides in PBS either 3 days prior to immunization (open squares), at the immunization day (open circles) or at both dates (open triangles). Ten days later the mice were sacrificed and their lymph nodes were removed and tested for proliferation in the presence of different concentrations of the immunizing peptide. Control groups were of LNC taken from mice that were immunized but not treated (filled squares), or treated with control peptide, p307 (half filled squares). The culture mixtures were incubated for 96 hours in enriched RPMI medium containing 1% normal mouse serum prior to addition of ^3H-thymidine. Sixteen hours later cells were harvested and radioactivity was counted. Results are expressed as mean CPM of triplicates.

In assay [4] the test system is antibodies in sera of SLE patients and healthy controls. Description: Antibodies in human sera binding coated peptides or mAb 5G12 (ELISA). Particulars: 32 SLE patients in comparison to healthy controls; plates coated 10 μg/ml. The method, then:
Human SLE patients (32 patients) were bled and their sera were tested by ELISA for their ability to bind the peptides Ia, IIa and IIIa, a control peptide p195-212 (a myasthogenic peptide described in PCT publication No. WO 94/00148) or mAb 5G12.
Detection of the antibodies was conducted on plates that were coated with 10 μg/ml of peptides Ia, IIa, IIIa or p195-212 or mAb 5G12, in PBS for 2 hr, washed and blocked with 1% ovalbumin in PBS for an additional 2 hr. ELISA was continued as described after blockage in Example 2 above, using goat anti-human IgG polyclonal antibody conjugated to peroxidase.

The mark [5] stands for this setting: BALB/c mice immunized with 20 μg in CFA plus booster.
Setting [6] is: SJL/J mice immunized with 20 μg in CFA plus booster.

In the case of “YYYCARFLWEPYAMDYWGQGS (YYCARFLWEPYAMDYWGQGS) [peptide IIIa, based on the CDR3 region of the VH chain of mAb 5G12]”, the “anti-DNA antibodies in sera” value with SJL/J and BALB/c mice [1] (setting [5]) is “did not show presence of anti-DNA antibodies”; with SJL/J and BALB/c mice [1] (setting [6]) it was “high level of anti-DNA antibodies”. Besides, in the assay with SJL/J and BALB/c mice [1], the “levels of autoantibodies including anti-DNA and anti-NE antibodies” value is given as “elevated levels of autoantibodies”. Also, the “anti-RNP antibodies in sera” value with SJL/J and BALB/c mice [2] (sera diluted 1:10) was “very high levels of anti-RNP antibodies”. Further, the “anti-Sm, anti-La and anti-Ro antibodies in sera” value with SJL/J and BALB/c mice [2] (sera diluted 1:10) was “very low levels of anti-Sm, anti-La and anti-Ro antibodies”. The “anti-Ro autoantibodies in sera” value with SJL/J and BALB/c mice [2] (SJL/J mice, sera diluted 1:10) was “extremely high levels of anti-Ro autoantibodies”. In the assay with SJL/J and BALB/c mice [2] (SJL/J mice), the “anti-RNP, anti-Sm and anti-La antibodies in sera” value is “High levels of anti-RNP, anti-Sm and anti-La antibodies”. In assay [3], the “proliferative responses of the LNC to Con A (specificity)” value was “not inhibited”. For the same substance, the “levels of serum antibodies that bind the coated peptide or mAb” value in assay [4] is listed as “significantly higher levels of antibodies”.

With “TGYYMQWVKQSPEKSLEWIG [peptide Ia]”, the “anti-DNA antibodies in sera” value in the assay with SJL/J and BALB/c mice [1] (setting [5]) is on record as “show presence of anti-DNA antibodies”. Moreover, in the assay with SJL/J and BALB/c mice [1], the “levels of autoantibodies including anti-DNA and anti-NE antibodies” value is recorded as “elevated levels of autoantibodies”. In the assay on SJL/J and BALB/c mice [1] (setting [6]), the “anti-DNA antibodies in sera” value is given as “Low levels of anti-DNA antibodies”. Also, in the assay with SJL/J and BALB/c mice [2] (sera diluted 1:10), the “anti-RNP antibodies in sera” value is given as “very high levels of anti-RNP antibodies”; the “anti-Sm, anti-La and anti-Ro antibodies in sera” value is listed as “produced detectable antibodies”. In addition, in the assay with SJL/J and BALB/c mice [2] (SJL/J mice), the “anti-RNP, anti-Sm and anti-La antibodies in sera” value is “High levels of anti-RNP, anti-Sm and anti-La antibodies”. For the same substance, the “proliferative responses of the LNC to Con A (specificity)” value in assay [3] is reported as “not inhibited”. Moreover, the “levels of serum antibodies that bind the coated peptide or mAb” value in assay [4] is given as “significantly higher levels of antibodies”.
